Source: article PMC4511415, “Inhibition of ANO1/TMEM16A Chloride Channel by Idebenone and Its Cytotoxicity to Cancer Cell Lines” (PLoS ONE, 2015)

Molecular target: T1, ANO1 (anoctamin 1, TMEM16A) (Homo sapiens, UniProt Q5XXA6)
T1 construct: human ANO1(abc)
T1 sequence (Q5XXA6 1-986): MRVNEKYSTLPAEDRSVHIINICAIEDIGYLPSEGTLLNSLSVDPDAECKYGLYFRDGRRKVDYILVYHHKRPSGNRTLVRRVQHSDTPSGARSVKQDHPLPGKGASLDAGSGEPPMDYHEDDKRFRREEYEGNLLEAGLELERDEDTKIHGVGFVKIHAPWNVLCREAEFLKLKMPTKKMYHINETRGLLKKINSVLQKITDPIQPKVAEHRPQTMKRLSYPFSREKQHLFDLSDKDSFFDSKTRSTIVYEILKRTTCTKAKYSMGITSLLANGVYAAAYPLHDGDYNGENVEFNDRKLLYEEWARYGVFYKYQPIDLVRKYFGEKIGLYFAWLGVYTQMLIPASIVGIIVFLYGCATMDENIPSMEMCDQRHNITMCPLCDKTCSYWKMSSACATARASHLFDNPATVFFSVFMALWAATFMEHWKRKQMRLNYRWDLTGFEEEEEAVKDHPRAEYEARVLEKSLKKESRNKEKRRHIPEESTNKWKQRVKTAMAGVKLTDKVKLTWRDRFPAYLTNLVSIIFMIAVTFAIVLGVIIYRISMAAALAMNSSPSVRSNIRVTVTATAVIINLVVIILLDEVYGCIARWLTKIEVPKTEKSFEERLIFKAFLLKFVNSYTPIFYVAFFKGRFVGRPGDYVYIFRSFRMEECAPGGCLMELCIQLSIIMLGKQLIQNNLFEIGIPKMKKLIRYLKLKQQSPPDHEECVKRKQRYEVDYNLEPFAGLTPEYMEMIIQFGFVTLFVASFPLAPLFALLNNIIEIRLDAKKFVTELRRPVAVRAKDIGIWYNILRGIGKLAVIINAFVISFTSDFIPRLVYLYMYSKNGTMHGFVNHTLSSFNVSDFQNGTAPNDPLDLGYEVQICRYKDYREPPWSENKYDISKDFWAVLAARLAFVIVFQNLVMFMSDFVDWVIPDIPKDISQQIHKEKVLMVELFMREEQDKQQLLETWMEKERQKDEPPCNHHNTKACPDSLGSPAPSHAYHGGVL
Experiment: apical membrane current (Ussing chamber) in FRT-ANO1 cells; whole-cell patch clamp; YFP iodide influx
Format: cell-based

- IC50: 9.2 µM
Structure (SMILES): COC1=C(OC)C(=O)C(CCCCCCCCCCO)=C(C)C1=O [idebenone, 2,3-dimethoxy-5-methyl-6-(10-hydroxydecyl)-21,4-benzoquinone]
